In patent publication US20240109843A1, “BENZALDEHYDE COMPOUNDS WITH DIRECT POLYMER DESTABILIZING EFFECTS TO TREAT SICKLE CELL DISEASE” (VIRGINIA COMMONWEALTH UNIVERSITY, priority 2018, published 2024):
Where “and” joins values, the source holds several entries; their conditions need not be identical. Equal values may be shown once.

How the values were obtained:
[1] = Single-dose oral pharmacokinetics in rats; format: in vivo, Sprague Dawley rats; conditions: Sprague Dawley, rat; single oral dose 100 mg/kg, male rats, whole blood
Method: Single doses of each compound were administered as oral suspensions by gavage in 0.5% carboxy methylcellulose at 100 mg/kg. Whole blood levels were collected for at least 72 hours after dose administration. Bioanalyses were performed with liquid chromatography-tandem mass spectrometry […].
Single-dose pharmacokinetics (PK) in male Sprague Dawley (SD) rats (n=4) were assessed for each compound, and the maximum or peak whole blood concentration and area under the curve are shown in Table 5.

Hb [2] = biological target: T1, Hb (Homo sapiens, UniProt P69905); assay: Drug partitioning studies, fixed and unfixed Hb adducts in non-sickling AA blood; format: cell-based; parameters: Hemoglobin modification, studies using non-sickling AA blood; from tissue; host or cells: non-sickling (AA) human blood, red blood cells; conditions: 2 mM; for Fixed Adducts (%) / Unfixed Adduct (%): 6 biological replicates; for Partitioning Ratio (%): fixed relative to unfixed adducts
Method: RBC partitioning studies were conducted both for SS RBCs following sickling studies above, or as separate independent studies with non-sickle blood. Briefly, aliquots of blood samples, which had been incubated with test molecules, were lysed either in deionized water (un-fixed), or in water containing 50 mM sodium borohydride (fixed). Samples were subjected to cation exchange HPLC analyses, as described above. Modified […] (Hb adducts) was determined as a proportion of total Hb in each sample, and partitioning ratio was determined as the relative fraction of Hb modification of fixed samples compared to corresponding non-fixed samples. The partitioning ratio is the relative fraction of Hb that was modified intracellularly by molecules that permeated the RBC membrane, as compared to unfixed adducts which reflect Hb binding without RBC membrane permeation.
Target sequence in this assay (P69905 2-142 limits assumed): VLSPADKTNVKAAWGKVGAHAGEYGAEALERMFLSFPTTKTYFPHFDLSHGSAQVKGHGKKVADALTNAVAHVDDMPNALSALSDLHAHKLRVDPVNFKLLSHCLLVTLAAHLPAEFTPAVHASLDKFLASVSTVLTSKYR
Target sequence in this assay (P68871 2-147 partner limits assumed): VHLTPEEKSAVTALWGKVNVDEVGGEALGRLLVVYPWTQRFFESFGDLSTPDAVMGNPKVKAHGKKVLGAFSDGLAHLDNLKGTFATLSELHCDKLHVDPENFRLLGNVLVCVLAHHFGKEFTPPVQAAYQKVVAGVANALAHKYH

[3] = 14-day repeat-dose safety (clinical observations, histopathology) in rats; format: in vivo, SD rats; conditions: for safety in non-clinical toxicology: above anticipated therapeutic drug levels; for clinical or histopathologic changes after 14 days of exposure: oral 100 mg/kg once daily for 14 days, rats
Method: (§1) Repeat doses of each compound were administered once daily as oral suspensions by gavage in 0.5% carboxy methylcellulose for 14 days at 100 mg/kg. Whole blood was collected at 7 time-points for up to 24 hours during the final dosing interval on Day 14. Clinical observations, body weights, and food consumption were recorded throughout the 14 day study. Clinical chemistry and hematologic parameters were assessed, and histopathology was performed on organs after 14 days of exposure to study drug.
(§2) Repeat oral doses of each compound were administered by oral gavage for 14 days to male and female SD rats (n=3). […] Steady state exposures for the final dosing interval on Day 14 were similar to total compound exposure from single-dose PK.

Hb [4] = biological target: T1, Hb; assay: Hb modification (drug-adduct formation) in SS blood suspensions by cation-exchange HPLC; format: binding; parameters: Blood suspensions from subjects with homozygous SCD; from tissue; host or cells: blood suspensions (20% hematocrit) from donors with homozygous SCD; lysates of the treated red cells; conditions: 2 mM, 4 biological replicates
Method: All compounds (Comp 1-13) and comparator molecules (VZHE-039, PP-14, INN-310, and Voxelotor) were evaluated following established procedures. Blood samples from individual donors with homozygous SCD (obtained with informed consent) were diluted using Hemox buffer solution with the addition of glucose (10 mM) and BSA (0.2%) to adjust hematocrit of the blood suspensions to 20%, which standardizes the procedure to normalize the ratio of RBCs to drug, for assay consistency and reproducibility. Briefly, blood suspensions were incubated under room air in the presence of various concentrations of test compounds (0-2 mM) at 37° C. for 1 hour in 96-well round bottom plates. Subsequently, the suspensions were incubated with a hypoxic gas mixture (2.5% Oxygen gas/balance Nitrogen gas) at 37° C. for up to 2 hours prior to fixation with 2% glutaraldehyde solution without exposure to air. The fixated blood aliquots were evaluated by microscopic morphological analysis (image analysis on Image J software) to identify the proportion of sickled and non-sickled RBCs, and sickle inhibition calculated based on the % change from negative control (DMSO).
The residual samples were then washed in phosphate-buffered saline, and hemolyzed in hypotonic lysis buffer, with or without sodium borohydride (50 mM). Aliquots obtained from the lysates with or without sodium borohydride (to reduce Schiff base adducts) were also assessed for level of Hb modification (drug-adduct formation) by cation-exchange HPLC (Hitachi D-7000 Series, Hitachi Instruments, Inc., San Jose, CA) with a weak cation-exchange column (Poly CAT A: 50 mm×4.6 mm, Poly LC, Inc., Columbia, MD). Hemoglobin isotype peaks are eluted with a linear gradient of phase B from 0% to 80% at A410 nm (Mobile Phase A: 40 mM Bis-Tris, 2 mM KCN, pH 6.9; Phase B: 40 mM Bis-Tris, 2 mM KCN, 0.2 M sodium chloride, pH 6.55). Clarified lysate from normal human adult […] (Hb A), as well as commercial standards containing approximately equal amounts of Hb F, A, S and C (Helena Laboratories, Beaumont, TX), were utilized as reference isotypes. Reduced samples were used to assess “fixed adduct” formation (dependent on RBC membrane permeability), whereas non-reduced samples assessed drug-adduct formation independent of drug permeability.
Target sequence in this assay (P69905 2-142): as the sequence (P69905 2-142 limits assumed) above
Target sequence in this assay (P68871 with tags, fused parts or gaps E7V partner): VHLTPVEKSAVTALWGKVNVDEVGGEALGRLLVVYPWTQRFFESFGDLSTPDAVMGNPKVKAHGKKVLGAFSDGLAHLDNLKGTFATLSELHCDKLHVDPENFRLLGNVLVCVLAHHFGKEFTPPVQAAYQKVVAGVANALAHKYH

[5] = 14-day repeat-dose oral pharmacokinetics in rats; format: in vivo; conditions: SD, rat, whole blood, repeat oral doses 100 mg/kg for 14 days
Method: as §1, §2

[6] = system: RBCs from donors with homozygous SCD; assay: Oxygen-independent sickle inhibition in SS blood suspensions under anoxia (100% nitrogen); format: cell-based, human; conditions: anoxia
Method: To establish oxygen-independent sickle inhibition, the incubation chamber was subsequently opened and exposed to room air for 15 minutes to ensure complete re-oxygenation and reversal of the sickled cells to normal round cells. Reversal was confirmed by microscopy. The incubation chamber was then closed, and the assay was repeated with incubation in 100% nitrogen gas for 1 hour (for screening), or up to 2.5 h (for time-course studies), with collection and fixation of blood aliquots at defined intervals. Aliquot samples were again subjected to microscopic morphological analysis of bright field images to identify the proportion of sickled and non-sickled cells, and sickle inhibition calculated.

Hb [7] = biological target: T1, Hb; assay: Affinity (KD) for Hb; format: binding
Target sequence in this assay (P69905 2-142 limits assumed): as the sequence (P69905 2-142 limits assumed) above
Target sequence in this assay (P68871 2-147 partner limits assumed): as the sequence (P68871 2-147 partner limits assumed) above

Hb [8] = biological target: T1, Hb; assay: Dose-dependent P50 shift in non-sickling human blood; format: cell-based; parameters: Hemoglobin modification, studies using non-sickling AA blood; from tissue; host or cells: non-sickling (AA) human blood, red blood cells; conditions: compared to Voxelotor at equivalent drug-Hb occupancy levels
Method: Non-sickling human blood was incubated with test compounds at 0.25-2 mM concentrations at 37° C. for 1 hour in 96-well round bottom plates. At conclusion, RBCs were washed once with PBS, followed by lysis with deionized water. Approximately 100 μl aliquots of individual lysates were added to 3 mL of 0.1M potassium phosphate buffer, pH 7.0 in a cuvette and subjected to hemoximetry analysis using a Hemox™ Analyzer (TCS Scientific Corp.) as previously described. Change in p50 values (Δp50) was calculated by subtracting the p50 values of treated samples from the value of the control sample and expressing the difference as a percentage of control p50 values.
Target sequence in this assay (P69905 2-142 limits assumed): as the sequence (P69905 2-142 limits assumed) above
Target sequence in this assay (P68871 2-147 partner limits assumed): as the sequence (P68871 2-147 partner limits assumed) above

[9] = patients with SCD, most patients; cited from earlier work
[10] = female rats, read-out: AUC0-∞ (female)
[11] = female rats, read-out: Cmax (female)
[12] = male rats, read-out: AUC0-∞ (male)
[13] = male rats, read-out: Cmax (male)

SMILES | AUC(0-inf) [1] | Cmax [1] | half-life [1] | Fixed Adducts (%) (Hb [2]) | Unfixed Adduct (%) (Hb [2]) | Partitioning Ratio (%) (Hb [2]) | safety in non-clinical toxicology [3] | clinical or histopathologic changes after 14 days of exposure [3] | Hb Modification (%) (Hb [4]) | AUC(0-inf) [5, 10] | Cmax [5, 11] | AUC(0-inf) [5, 12] | Cmax [5, 13] | polymer destabilizing effect / sickle inhibition in anoxia (in words) [6] | Kd (Hb [7]) | change in p50 of Hb in human blood (in words) (Hb [8]) | increase in Hb concentrations [9]
O=Cc1c(O)cccc1OCc1cccnc1 [Comp 1, 2-hydroxy-6-(pyridin-3-ylmethoxy)benzaldehyde] | 4e+06 ng·h/mL and 17400 µM·h | 211000 ng/mL and 919 µM | 300 min | 96.0 ± 1.9% | 97.4 ± 2.8% | 98.6 ± 2.8% | without hepatotoxicity | No clinical or histopathologic changes | 95.8 ± 6.2% | 1.9e+06 ng·h/mL and 8080 µM·h | 122000 ng/mL and 534 µM | 2.4e+06 ng·h/mL and 10500 µM·h | 161000 ng/mL and 703 µM | most potent and sustained polymer destabilizing effects observed to date | 60 µM | relatively weak changes in p50 | –
O=Cc1c(O)cccc1OCc1ccccn1 [Comp 2, 2-hydroxy-6-(pyridin-2-ylmethoxy)benzaldehyde] | 4.5e+06 ng·h/mL and 19800 µM·h | 220000 ng/mL and 958 µM | 582 min | 95.2 ± 2.3% | 96.3 ± 2.6% | 98.9 ± 2.9% | without hepatotoxicity | No clinical or histopathologic changes | 95.5 ± 5.7% | 4.9e+06 ng·h/mL and 21500 µM·h | 254000 ng/mL and 1.11 mM | 4.7e+06 ng·h/mL and 20400 µM·h | 254000 ng/mL and 1.11 mM | most potent and sustained polymer destabilizing effects observed to date | – | relatively weak changes in p50 | –
O=Cc1c(O)cccc1OCc1ncccc1F [Comp 5, 2-((3-fluoropyridin-2-yl)methoxy)-6-hydroxybenzaldehyde] | 3e+06 ng·h/mL and 12000 µM·h | 86000 ng/mL and 348 µM | 528 min | 93.1 ± 3.3% | 95.8 ± 3.3% | 97.2 ± 3.2% | without hepatotoxicity | No clinical or histopathologic changes | 98.2 ± 2.5% | 5.1e+06 ng·h/mL and 20600 µM·h | 246000 ng/mL and 993 µM | 4.2e+06 ng·h/mL and 17100 µM·h | 211000 ng/mL and 854 µM | – | – | relatively weak changes in p50 | –
O=Cc1c(O)cccc1OCc1cccc(CO)n1 [VZHE-039, reference compound] | 2.3e+06 ng·h/mL and 8780 µM·h | 102000 ng/mL and 394 µM | 504 min | 90.9 ± 3.4% | 92.4 ± 5.6% | 98.5 ± 4.3% | – | clinical and histopathologic changes in the liver, including hepatocyte necrosis | 90.7 ± 9.9% | 3.2e+06 ng·h/mL and 12200 µM·h | 232000 ng/mL and 894 µM | 3e+06 ng·h/mL and 11600 µM·h | 195000 ng/mL and 753 µM | – | 100 µM | – | –
CC(C)n1nccc1-c1ncccc1COc1cccc(O)c1C=O [Voxelotor, reference compound] | – | – | – | 77.0 ± 3.8% | 80.3 ± 6.3% | 96.1 ± 3.7% | – | – | 92.3 ± 6.8% | 2.6e+06 ng·h/mL and 7620 µM·h | 185000 ng/mL and 548 µM | 2.3e+06 ng·h/mL and 6760 µM·h | 142000 ng/mL and 422 µM | did not demonstrate any sickle inhibition in anoxic conditions | – | – | at least 1 g/dl
